Data: ChEMBL document CHEMBL4033687, “Synthesis, biological evaluation and molecular docking studies of chromone hydrazone derivatives as α-glucosidase inhibitors” (Bioorg Med Chem Lett, 2017)
pIC50: −log10 of the molar value. The source made the active and inactive calls. The calls are words filed in the database; no cut-off is given here.

How the values were obtained:
[1] = Inhibition of alpha glucosidase (unknown origin) using p-nitrophenyl alpha-D-glucopyranoside as substrate pretreated for 15 mins followed by substrate addition after 30 mins by spectrophotometric method; design: species or system Homo sapiens
Homo sapiens = species: Homo sapiens; assay: Non-competitive inhibition of alpha glucosidase (unknown origin) at 10 to 30 uM using p-nitrophenyl alpha-D-glucopyranoside as substrate by line-weaver burk plot method

Row | SMILES | pIC50 [1] | inhibition (Homo sapiens)
1 | O=C(N/N=C/c1coc2cc(O)ccc2c1=O)c1ccc(O)cc1 | 4.06 | –
2 | CCOC(=O)N/N=C/c1coc2ccccc2c1=O | < 4.00 | –
3 | Nc1ccc(C(=O)N/N=C/c2coc3ccccc3c2=O)cc1 | 4.01 | –
4 | O=c1c(/C=N/Nc2cccc(Cl)c2)coc2ccccc12 | < 4.00 | –
5 | O=C(N/N=C/c1coc2ccccc2c1=O)c1ccc(O)cc1 | 4.40 | –
6 | O=C(N/N=C/c1coc2ccccc2c1=O)c1cccs1 | < 4.00 | –
7 | O=C(N/N=C/c1coc2ccccc2c1=O)c1ccccc1 | < 4.00 | –
8 | NS(=O)(=O)c1ccc(N/N=C/c2coc3ccccc3c2=O)cc1 | 4.70 | Active
9 | NS(=O)(=O)c1ccc(N/N=C/c2coc3cc(O)ccc3c2=O)cc1 | 4.60 | –

Continued, values first:

Row | pIC50 [1] | inhibition (Homo sapiens) | SMILES
10 | 4.57 | – | O=c1c(/C=N/Nc2ccccc2)coc2ccccc12
11 | 4.34 | – | O=C(N/N=C/c1coc2cc(O)ccc2c1=O)c1ccccc1
12 | 4.22 | – | O=C(N/N=C/c1coc2cc(O)ccc2c1=O)c1cccs1
13 | 4.02 | – | CCOC(=O)N/N=C/c1coc2cc(O)ccc2c1=O
14 | 4.51 | – | Nc1ccc(C(=O)N/N=C/c2coc3cc(O)ccc3c2=O)cc1
15 | < 4.00 | – | Cc1ccc(S(=O)(=O)N/N=C/c2coc3cc(O)ccc3c2=O)cc1
16 | 4.01 | – | O=c1c(/C=N/Nc2cccc(Cl)c2)coc2cc(O)ccc12
